Where “and” joins values, the source holds several entries; their conditions need not be identical. Equal entries are not always repeated.
System: powdery mildew
Test: Field trials of foliar fungicide treatments on Carignane grape vines against powdery mildew (Example IV)
Type: in vivo
[1] = individual plot data, rated July 3 after June 22 treatment
[2] = individual plot data, rated July 12 after July 3 treatment
[3] = individual plot data, rated June 22 after June 12 treatment
[4] = rated July 3 after June 22 treatment (10 days after second treatment), average of plots
[5] = rated July 12 after July 3 treatment (10 days after third treatment), average of plots
[6] = rated June 22 after June 12 treatment (10 days after first treatment), average of plots

[S] [4-6 lb/acre sulphur, sulphur]
% fruit w/ symptoms [1]: 20% and 40% and 15% and 5% | % leaves w/ symptoms [1]: 10% and 20% and 2% and 8% | % severity of infected fruit [1]: 15% and 30% and 10% and 5% | % severity of infected leaves [1]: 15% and 20% and 4% and 5% | % fruit w/ symptoms [2]: 10% and 60% and 40% and 20% | % leaves w/ symptoms [2]: 2% (3×) and 15% | % severity of infected fruit [2]: 10% (2×) and 40% and 25% | % severity of infected leaves [2]: 5% (3×) and 2% | % fruit w/ symptoms [3]: 30% and 40% and 20% and 15% | % leaves w/ symptoms [3]: 2% (2×) and 20% and 5% | % severity of infected fruit [3]: 8% and 30% and 6% and 20% | % severity of infected leaves [3]: 2% (2×) and 18% and 5% | % fruit w/ symptoms [4]: 20% | % leaves w/ symptoms [4]: 10% | % severity of infected fruit [4]: 15% | % severity of infected leaves [4]: 11% and 20% | % fruit w/ symptoms [5]: 32.5% | % leaves w/ symptoms [5]: 5.25% | % severity of infected fruit [5]: 21.25% | % severity of infected leaves [5]: 4.25% | % fruit w/ symptoms [6]: 26.25% | % leaves w/ symptoms [6]: 7.25% | % severity of infected fruit [6]: 16% | % severity of infected leaves [6]: 6.75% | fungal disease control (in words) (ten days after the third treatment): substantially lower disease infection in leaves over the low rate NaClO2+US acid treatment
